According to US20220396569A1 (Carmot Therapeutics, Inc., priority 2021, published 2022):

Each molecule was assayed against T1, human GLP-1 receptor (Homo sapiens, UniProt P43220) (assay: GLP-1R cAMP Assay (HitHunter cAMP accumulation)). Conditions: EC50, cAMP accumulation, CHO cells stably overexpressing human GLP-1 receptor, 30 min treatment.
T1 construct: expressed in transfected cells
T1 sequence (P43220 24-463): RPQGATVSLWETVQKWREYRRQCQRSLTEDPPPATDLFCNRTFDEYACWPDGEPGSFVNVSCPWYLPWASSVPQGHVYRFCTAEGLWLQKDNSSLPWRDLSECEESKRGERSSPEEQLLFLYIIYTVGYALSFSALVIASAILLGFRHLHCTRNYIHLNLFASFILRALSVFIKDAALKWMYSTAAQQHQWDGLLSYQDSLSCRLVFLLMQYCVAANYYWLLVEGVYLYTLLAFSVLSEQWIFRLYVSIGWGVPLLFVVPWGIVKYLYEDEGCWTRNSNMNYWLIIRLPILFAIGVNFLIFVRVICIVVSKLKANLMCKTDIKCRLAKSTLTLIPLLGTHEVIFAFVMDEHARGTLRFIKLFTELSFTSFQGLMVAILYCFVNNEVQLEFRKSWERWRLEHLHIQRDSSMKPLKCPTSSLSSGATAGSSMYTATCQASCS
Type: cell-based
Summary of the method: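 CHO cells stably expressing human GLP-1R, 10,000 cells/well in HBSS with 10 mM HEPES and 625 μM IBMX, were mixed with anti-cAMP antibody reagent. Compound was applied as a 20-point dose response in triplicate for 30 min. After lysis and overnight detection, luminescence was read and dose-response curves analysed.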
With `O=C(O)c1cc(F)c2nc(CN3CC[C@H](Oc4ccnc(COc5ccc(Cl)cc5F)n4)C3)n(CC3CCO3)c2c1` (stereo partly drawn) [Compound 361, 2-{[(3S)-3-({2-[(4-chloro-2-fluorophenoxy)methyl]pyrimidin-4-yl}oxy)pyrrolidin-1-yl]methyl}-4-fluoro-1-[(oxetan-2-yl)methyl]-1H-1,3-benzodiazole-6-carboxylic acid] the EC50 was < 50 nM.

Same assay, conditions: cAMP accumulation, CHO cells stably overexpressing human GLP-1 receptor, 30 min treatment; read-out: EC50
In the case of `O=C(O)c1ccc2nc(CN3CC(Cc4ccnc(COc5ccc(Cl)cc5Cl)c4)C3)n(C[C@H]3CCOC3)c2c1` [Compound 180], the EC50 is reported as < 50 nM.
`CC1(c2ccc(Cl)cc2F)Oc2cccc(CC3CCN(Cc4nc5ccc(C(=O)O)cc5n4C[C@@H]4CCO4)CC3)c2O1` (stereo partly drawn) [Example 201, 2-((4-((2-(4-Chloro-2-fluorophenyl)-2-methylbenzo[d][1,3]dioxol-4-yl)methyl)piperidin-1-yl)methyl)-1-(((S)-oxetan-2-yl)methyl)-1H-benzo[d]imidazole-6-carboxylic acid] gave an EC50 of 50 to 500 nM.
In the case of `O=C(O)c1cc(F)c2nc(CN3CC[C@@H](c4cccc(COc5ccc(Cl)cc5F)n4)C3)n(C[C@@H]3CCO3)c2c1` [Compound 441, 2-{[(3R)-3-{6-[(4-chloro-2-fluorophenoxy)methyl]pyridin-2-yl}pyrrolidin-1-yl]methyl}-4-fluoro-1-{[(2S)-oxetan-2-yl]methyl}-1H-1,3-benzodiazole-6-carboxylic acid], the EC50 is reported as 50 to 500 nM.
With `O=C(O)c1cc(F)c2nc(CN3CC[C@H](Oc4cccc(COc5ccc(Cl)cc5F)c4)C3)n(C[C@@H]3CCO3)c2c1` [Compound 351, 2-{[(3S)-3-{3-[(4-chloro-2-fluorophenoxy)methyl]phenoxy}pyrrolidin-1-yl]methyl}-4-fluoro-1-{[(2S)-oxetan-2-yl]methyl}-1H-1,3-benzodiazole-6-carboxylic acid] the EC50 was < 50 nM.
In the case of `N#Cc1cc(F)ccc1OCc1cc([C@@H]2CCN(Cc3nc4ccc(C(=O)O)cc4n3C[C@@H]3CCO3)C2)ccc1F` [Compound 447, 2-{[(3S)-3-{3-[(2-cyano-4-fluorophenoxy)methyl]-4-fluorophenyl}pyrrolidin-1-yl]methyl}-1-{[(2S)-oxetan-2-yl]methyl}-1H-1,3-benzodiazole-6-carboxylic acid], the EC50 is reported as < 50 nM.
For `O=C(O)c1cc(F)c2nc(CN3CC[C@@H](c4ccc(F)c(COc5ccc(Cl)cc5F)n4)C3)n(C[C@@H]3CCO3)c2c1` [Compound 453, 2-{[(3R)-3-{6-[(4-chloro-2-fluorophenoxy)methyl]-5-fluoropyridin-2-yl}pyrrolidin-1-yl]methyl}-4-fluoro-1-{[(2S)-oxetan-2-yl]methyl}-1H-1,3-benzodiazole-6-carboxylic acid], the EC50 was < 50 nM.
`O=C(O)c1ccc2nc(CN3CC(Cc4cnc(COc5ccc(Cl)cc5Cl)o4)C3)n(C[C@@H]3CCO3)c2c1` [Compound 191] was tested, and the EC50 was < 50 nM.
With `N#Cc1cc(Cl)ccc1OCc1cc(OC2CN(Cc3nc4ccc(C(=O)O)cc4n3C[C@@H]3CCO3)C2)ccn1` [Example 193, (S)-2-((3-((2-((4-Chloro-2-cyanophenoxy)methyl)pyridin-4-yl)oxy)azetidin-1-yl)methyl)-1-(oxetan-2-ylmethyl)-1H-benzo[d]imidazole-6-carboxylic acid] the EC50 was < 50 nM.
`CCn1cncc1Cn1c(Cc2ccc(Oc3ccnc(COc4ccc(Cl)cc4F)c3)cc2F)nc2ccc(C(=O)O)cc21` [Compound 462, 2-{[4-({2-[(4-chloro-2-fluorophenoxy)methyl]pyridin-4-yl}oxy)-2-fluorophenyl]methyl}-1-[(1-ethyl-1H-imidazol-5-yl)methyl]-1H-1,3-benzodiazole-6-carboxylic acid] was tested, and the EC50 was < 50 nM.
`N#Cc1ccc(OCc2cc(Oc3ccc(Cc4nc5c(F)cc(C(=O)O)cc5n4C[C@@H]4CCO4)c(F)c3)ccn2)c(F)c1` [Compound 537, 2-{[4-({2-[(4-cyano-2-fluorophenoxy)methyl]pyridin-4-yl}oxy)-2-fluorophenyl]methyl}-4-fluoro-1-{[(2S)-oxetan-2-yl]methyl}-1H-1,3-benzodiazole-6-carboxylic acid] was tested, and the EC50 was < 50 nM.
In the case of `N#Cc1ccc(OCc2nc(N3CCN(Cc4nc5ccc(C(=O)O)cc5n4C[C@@H]4CCO4)C3=O)ccc2F)c(F)c1` [Compound 535, (S)-2-((3-(6-((4-Cyano-2-fluorophenoxy)methyl)-5-fluoropyridin-2-yl)-2-oxoimidazolidin-1-yl)methyl)-1-(oxetan-2-ylmethyl)-1H-benzo[d]imidazole-6-carboxylic acid], the EC50 is reported as > 500 nM.
With `N#Cc1ccc(OCc2nc(C34CC3CN(Cc3nc5c(F)cc(C(=O)O)cc5n3C[C@@H]3CCO3)C4)ccc2F)c(Cl)c1` (stereo partly drawn) [Compound 525, 2-[(1-{6-[(2-chloro-4-cyanophenoxy)methyl]-5-fluoropyridin-2-yl}-3-azabicyclo[3.1.0]hexan-3-yl)methyl]-4-fluoro-1-{[(2S)-oxetan-2-yl]methyl}-1H-1,3-benzodiazole-6-carboxylic acid] the EC50 was < 50 nM.
For `O=C(O)c1ccc2nc(Cc3cc(F)c(Oc4ccnc(COc5ccc(Cl)cc5F)c4)cc3F)n(C[C@@H]3CCO3)c2c1` [Compound 536, (S)-2-(4-((2-((4-Chloro-2-fluorophenoxy)methyl)pyridin-4-yl)oxy)-2,5-difluorobenzyl)-1-(oxetan-2-ylmethyl)-1H-benzo[d]imidazole-6-carboxylic acid], the EC50 was < 50 nM.
`N#Cc1ccc(OCc2ccc(F)c(C3CCN(Cc4nc5c(F)cc(C(=O)O)cc5n4C[C@@H]4CCO4)C3)n2)c(F)c1` (stereo partly drawn) [Compound 521, 2-[(3-{6-[(4-cyano-2-fluorophenoxy)methyl]-3-fluoropyridin-2-yl}pyrrolidin-1-yl)methyl]-4-fluoro-1-{[(2S)-oxetan-2-yl]methyl}-1H-1,3-benzodiazole-6-carboxylic acid] was tested, and the EC50 was < 50 nM.
For `N#Cc1ccc(OCc2nc([C@@H]3CCN(Cc4nc5c(F)cc(C(=O)O)cc5n4C[C@@H]4CCO4)C3)ccc2F)c(F)c1` [Compound 454, 2-{[(3R)-3-{6-[(4-cyano-2-fluorophenoxy)methyl]-5-fluoropyridin-2-yl}pyrrolidin-1-yl]methyl}-4-fluoro-1-{[(2S)-oxetan-2-yl]methyl}-1H-1,3-benzodiazole-6-carboxylic acid], the EC50 was < 50 nM.
With `N#Cc1ccc(OCc2nccc(Oc3ccc(Cc4nc5ccc(C(=O)O)cc5n4C[C@@H]4CCO4)c(F)c3)n2)c(F)c1` [Compound 465, 2-{[4-({2-[(4-cyano-2-fluorophenoxy)methyl]pyrimidin-4-yl}oxy)-2-fluorophenyl]methyl}-1-{[(2S)-oxetan-2-yl]methyl}-1H-1,3-benzodiazole-6-carboxylic acid] the EC50 was < 50 nM.
`N#Cc1ccc(OCc2cc([C@@H]3CCN(Cc4nc5ccc(C(=O)O)cc5n4C[C@@H]4CCO4)C3)ccc2F)c(F)c1` [Compound 443, 2-{[(3S)-3-{3-[(4-cyano-2-fluorophenoxy)methyl]-4-fluorophenyl}pyrrolidin-1-yl]methyl}-1-{[(2S)-oxetan-2-yl]methyl}-1H-1,3-benzodiazole-6-carboxylic acid] was tested, and the EC50 was < 50 nM.
With `O=C(O)c1ccc2nc(CN3CCC(c4cccc(COc5ccc(Cl)cc5Cl)n4)C3)n(C[C@@H]3CCO3)c2c1` (stereo partly drawn) [Example 386, 2-((3-(6-((2,4-Dichlorophenoxy)methyl)pyridin-2-yl)pyrrolidin-1-yl)methyl)-1-(((S)-oxetan-2-yl)methyl)-1H-benzo[d]imidazole-6-carboxylic acid] the EC50 was < 50 nM.
With `N#Cc1ccc(OCc2nc(C3=CCN(Cc4nc5c(F)cc(C(=O)O)cc5n4C[C@@H]4CCO4)C3)ccc2F)c(F)c1` [Compound 421, 2-[(3-{6-[(4-cyano-2-fluorophenoxy)methyl]-5-fluoropyridin-2-yl}-2,5-dihydro-1H-pyrrol-1-yl)methyl]-4-fluoro-1-{[(2S)-oxetan-2-yl]methyl}-1H-1,3-benzodiazole-6-carboxylic acid] the EC50 was < 50 nM.
`O=C(O)c1ccc2nc(CN3CC[C@@H](c4cccc(COc5ccc(Cl)cc5Cl)c4)C3)n(C[C@@H]3CCO3)c2c1` (single isomer, unassigned) [Example 405] was tested, and the EC50 was < 50 nM.
`N#Cc1ccc(OCc2nc(N3CC[C@@H](Cc4nc5ccc(C(=O)O)cc5n4C[C@@H]4CCO4)C3)ccc2F)c(F)c1` [Compound 533, 2-(((S)-1-(6-((4-Cyano-2-fluorophenoxy)methyl)-5-fluoropyridin-2-yl)pyrrolidin-3-yl)methyl)-1-(((S)-oxetan-2-yl)methyl)-1H-benzo[d]imidazole-6-carboxylic acid] was tested, and the EC50 was < 50 nM.
For `N#Cc1ccc(OCc2cccc([C@@H]3CCN(Cc4nc5c(F)cc(C(=O)O)cc5n4C[C@@H]4CCO4)C3)c2)c(F)c1` [Compound 445, 2-{[(3S)-3-{3-[(4-cyano-2-fluorophenoxy)methyl]phenyl}pyrrolidin-1-yl]methyl}-4-fluoro-1-{[(2S)-oxetan-2-yl]methyl}-1H-1,3-benzodiazole-6-carboxylic acid], the EC50 was < 50 nM.
In the case of `N#Cc1ccc(OCc2ccc(F)c(C3=CCN(Cc4nc5ccc(C(=O)O)cc5n4C[C@@H]4CCO4)C3)n2)c(Cl)c1` [Compound 458, 2-[(3-{6-[(2-chloro-4-cyanophenoxy)methyl]-3-fluoropyridin-2-yl}-2,5-dihydro-1H-pyrrol-1-yl)methyl]-1-{[(2S)-oxetan-2-yl]methyl}-1H-1,3-benzodiazole-6-carboxylic acid], the EC50 is reported as < 50 nM.
In the case of `CCn1cncc1Cn1c(CN2CCC(Cc3cccc4c3OC(C)(c3ccc(Cl)cn3)O4)CC2)nc2ccc(C(=O)O)cc21` (stereo not drawn) [Compound 184, 2-[(4-{[2-(5-chloropyridin-2-yl)-2-methyl-2H-1,3-benzodioxol-4-yl]methyl}piperidin-1-yl)methyl]-1-[(1-ethyl-1H-imidazol-5-yl)methyl]-1H-1,3-benzodiazole-6-carboxylic acid], the EC50 is reported as < 50 nM.
`CCn1cncc1Cn1c(CN2CCC(Cc3cccc4c3O[C@](C)(c3ccc(Cl)cc3F)O4)CC2)nc2ccc(C(=O)O)cc21` (single isomer, unassigned) [Compound 222] was tested, and the EC50 was < 50 nM.
In the case of `O=C(O)c1ccc2nc(CN3CCC(c4cc(COc5ccc(Cl)cc5Cl)ccn4)C3)n(C[C@@H]3CCO3)c2c1` (stereo partly drawn) [Compound 391], the EC50 is reported as < 50 nM.
